Series [1] concerns the target T1, hMC1r (Homo sapiens, UniProt Q01726). Description: Competitive inhibition binding assay using [I125]-NDP-α-MSH, hMC1r membranes. Conditions: human recombinant MC1r, HEK-293 membranes, read-out: MC-1 Ki (average). As for the experimental part: (§1) A competitive inhibition binding assay was performed using membrane homogenates prepared from HEK-293 cells that express recombinant hMC1r or hMC4r (in each instance where the h prefix refers to human), or alternatively membrane homogenates from B16-F10 mouse melanoma cells containing endogenous murine MC1r. In the examples that follow, all MC1r and MC4r values are for human recombinant receptors, unless otherwise noted. Assays were performed in 96 well polypropylene round-bottom plates (VWR catalog number 12777-030). […] After incubation for 90 minutes at 37° C., the assay mixture was filtered onto GF/B Unifilter plates (Perkin-Elmer catalog number 6005177) and washed with 3 mL of ice-cold buffer per well. Filters were air dried and 35 μL of scintillation cocktail added to each well. Plates were counted in a Microbeta counter for bound radioactivity. […] Each assay was conducted in duplicate and the actual mean values are described, with results less than 0% reported as 0%. Ki values for peptides of the present invention were determined using Graph-Pad Prism® curve-fitting software.
(§2) All results are expressed in nM except for Emax values, which are percentage values. Peptides with the captioned primary sequence were synthesized and purified as described in Section 7 above, with the resulting peptide having the structure depicted.

A short description of series [2]: Human clinical microdose study of C14-labeled oral formulation. It counts as in vivo. The note with it: single oral microdose of C14-labeled Example 9.3 formulated as for Lot 41. An excerpt: A combination of Eudragit® L100-55, Eudragit® S-100 and Eudragit® FS30D polymethacrylates were selected and utilized at a weight ratio of 23.25:23.0:12.5, where the weight of L100-55 and S-100 was dry weight of solid material, and the weight of FS30D was of a commercially prepared aqueous formulation wherein the 12.5 grams of liquid FS30D contained 3.75 grams polymer, for a weight ratio of polymer of 23.25:23:3.75. The combination of polymethacrylates were placed in acetone and stirred for an extended period. […] The dried material was retrieved, diluted with additional dried polymetacrylate mixture not containing peptide to obtain the desired target concentration in a predetermined quantity of material, and milled to the desired diameter and sieved. The sieved material was placed within a gelatin size 2 capsule to provide an oral formulation.
The oral formulation was administered in a microdose level to 24 subjects, divided into six cohorts of 4 subjects each.
The only radioactive material identified in urine was the C14 labelled phenylalanine.

Series [3] concerns the target T2, MC4r (Homo sapiens, UniProt P32245). The experiment in a line: Competitive inhibition binding assay using [I125]-NDP-α-MSH, hMC4r membranes. Conditions: human recombinant MC4r, HEK-293 membranes, read-out: MC-4 Ki (average). Also on record: expressed in transfected cells; host or cells: HEK-293. As for the experimental part:
as §1, §2

Series [4] deals with T1, hMC1r. Description: Assay for agonist activity: cAMP accumulation in HBL melanoma cells. It counts as cell-based. Conditions: for Emax: HBL, compared to NDP-α-MSH as 100%, read-out: MC-1 Emax (average; cAMP HBL). Also on record: endogenous in cells; host or cells: HBL human melanoma cells.
For a further series, the system named is MC1r. The experiment in a line: Functional selectivity evaluation at Cerep, MC1r. It counts as cell-based.
For the next series, the target named is T3, MC2r (Homo sapiens, UniProt Q01718).
T3 construct: Cerep
T3 sequence (Q01718 whole entry, species assumed): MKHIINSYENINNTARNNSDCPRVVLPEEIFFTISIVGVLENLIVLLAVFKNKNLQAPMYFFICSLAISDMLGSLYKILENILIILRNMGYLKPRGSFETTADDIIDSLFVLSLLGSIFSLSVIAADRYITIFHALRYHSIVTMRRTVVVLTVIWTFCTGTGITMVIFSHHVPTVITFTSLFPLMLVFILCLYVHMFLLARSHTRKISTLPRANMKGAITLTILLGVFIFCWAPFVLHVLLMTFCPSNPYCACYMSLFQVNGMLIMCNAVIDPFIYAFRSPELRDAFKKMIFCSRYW
T3 sequence (Q8TCY5 whole entry partner, species assumed): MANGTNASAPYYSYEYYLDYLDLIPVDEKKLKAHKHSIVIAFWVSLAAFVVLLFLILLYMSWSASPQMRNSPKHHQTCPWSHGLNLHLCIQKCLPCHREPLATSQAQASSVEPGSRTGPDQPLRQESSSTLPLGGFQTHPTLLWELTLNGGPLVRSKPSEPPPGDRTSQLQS
Description: Functional selectivity evaluation at Cerep, MC2r. It counts as cell-based. An excerpt:
The results were as follows:

The target of another series is T4, MC3r (Homo sapiens, UniProt P41968).
T4 construct: Cerep
T4 sequence (P41968 whole entry, species assumed): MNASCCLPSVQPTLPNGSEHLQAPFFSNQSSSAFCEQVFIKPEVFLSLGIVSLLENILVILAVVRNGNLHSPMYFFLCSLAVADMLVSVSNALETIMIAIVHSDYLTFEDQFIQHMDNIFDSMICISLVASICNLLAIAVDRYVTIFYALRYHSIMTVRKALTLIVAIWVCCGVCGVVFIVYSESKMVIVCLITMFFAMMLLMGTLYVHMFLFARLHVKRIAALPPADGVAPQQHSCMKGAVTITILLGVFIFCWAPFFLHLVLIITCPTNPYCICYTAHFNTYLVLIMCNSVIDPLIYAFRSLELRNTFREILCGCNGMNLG
The experiment in a line: Functional selectivity evaluation at Cerep, MC3r. It counts as cell-based.

The target of another series is T5, MC5r (Homo sapiens, UniProt P33032).
T5 construct: Cerep
T5 sequence (P33032 whole entry, species assumed): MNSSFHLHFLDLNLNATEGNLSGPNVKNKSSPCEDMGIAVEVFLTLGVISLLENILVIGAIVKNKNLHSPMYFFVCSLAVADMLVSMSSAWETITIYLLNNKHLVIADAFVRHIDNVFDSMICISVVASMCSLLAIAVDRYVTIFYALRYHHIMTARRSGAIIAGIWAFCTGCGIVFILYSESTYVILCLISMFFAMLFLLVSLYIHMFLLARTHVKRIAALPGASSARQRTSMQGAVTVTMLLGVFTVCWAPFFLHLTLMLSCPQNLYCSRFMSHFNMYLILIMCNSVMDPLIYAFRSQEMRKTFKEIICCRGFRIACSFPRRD
The experiment in a line: Functional selectivity evaluation at Cerep, MC5r. It counts as cell-based.

In a further series the test system is TNF-α. Description: Lipopolysaccharide-induced TNF-α inhibition in vitro. It counts as cell-based.
A further series deals with 72 in vitro assays. Description: Eurofins lead profile. The note with it: 10 μM.
Series [5] relates to DNBS-induced bowel inflammation. The experiment in a line: Cannulated rat DNBS model of bowel inflammation, intracolonic dosing. It counts as in vivo. The note with it: 0.5 μg and 5.0 μg intracolonic, Wistar rats. As for the experimental part: The rats were implanted with a catheter in the proximal part of the ascending colon, which exited out the nape of the neck for dosing access. […] Non-cannulated control rats were administered sulfasalazine (positive controls) and vehicle (untreated controls).

A short description of series [6]: Plasma assay for systemic peptide in DNBS colitis rats after oral capsules. It counts as in vivo, rat. Conditions: oral capsules of Lot 41.
Series [7] in a line: Dissolution of Eudragit microparticles, USP Apparatus 2. It counts as physicochemical. Conditions: Lot 40 microparticles (FIG. 8). As for the experimental part:
About 1 g of the microparticles was accurately weighed and suspended in the acid at 37° C. for 2 hours. The pH of the medium was then sequentially adjusted to pH 5.5 for 1 hour, pH 6.8 for another hour and finally to pH 7.4 for 7 hours.

Series [8] has as its target T2, MC4r. The experiment in a line: cell-based.

Ends that are not written are not given here.

T1 sequence (Q01726 whole entry): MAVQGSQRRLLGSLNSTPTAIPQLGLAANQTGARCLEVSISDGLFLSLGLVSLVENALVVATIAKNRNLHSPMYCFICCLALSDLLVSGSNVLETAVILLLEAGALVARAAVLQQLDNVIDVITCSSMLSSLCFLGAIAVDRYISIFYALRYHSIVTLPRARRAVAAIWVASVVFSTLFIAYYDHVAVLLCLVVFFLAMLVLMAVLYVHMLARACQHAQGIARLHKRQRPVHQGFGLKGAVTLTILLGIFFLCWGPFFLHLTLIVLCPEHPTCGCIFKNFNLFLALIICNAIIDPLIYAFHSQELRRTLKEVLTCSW
T2 sequence (P32245 whole entry): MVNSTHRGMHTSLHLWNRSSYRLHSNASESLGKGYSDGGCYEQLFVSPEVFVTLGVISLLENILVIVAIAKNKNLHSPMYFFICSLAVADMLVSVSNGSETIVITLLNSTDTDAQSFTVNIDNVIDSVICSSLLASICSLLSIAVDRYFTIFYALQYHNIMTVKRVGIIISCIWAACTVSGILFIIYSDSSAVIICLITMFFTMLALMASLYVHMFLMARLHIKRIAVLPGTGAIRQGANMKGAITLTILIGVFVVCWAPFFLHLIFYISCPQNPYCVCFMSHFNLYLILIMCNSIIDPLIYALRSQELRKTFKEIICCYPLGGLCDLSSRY

In general, Ki refers to the dissociation constant of the complex between target and ligand, obtained from inhibition or displacement. The Emax is the size of the effect at its maximum, as opposed to the concentration needed. Usually EC50 stands for the concentration needed to bring the measured effect to its halfway point. Regarding `CCCC[C@H](NC(C)=O)C(=O)N[C@H]1CCC(=O)NC[C@@H](C(=O)N[C@@H](Cc2c[nH]c3ccccc23)C(C)=O)NC(=O)[C@H](CCCNC(=N)N)NC(=O)[C@@H](Cc2ccccc2)NC(=O)[C@H](Cc2c[nH]cn2)NC1=O` [Example 9.26, Ac-Nle-cyclo(Glu-His-D-Phe-Arg-Dap)-Trp-OH], the inhibition constant Ki at hMC1r [1] turned out to be 1 nM. Moreover, in [2], the “intact peptide in plasma or urine” value was “no intact peptide”; the “peptide levels in fecal samples” value was “significant and approximately equal levels”. At MC4r [3], the inhibition constant Ki was 4700 nM. On hMC1r [4], the maximum response (Emax) turned out to be 81%. Besides, the half-maximal effective concentration (EC50) on hMC1r [4] (read-out: MC-1 EC50 (average; cAMP HBL)) is 0.107 nM.
`CCCC[C@H](NC(C)=O)C(=O)N[C@H]1CCC(=O)NC[C@@H](C(=O)N[C@@H](Cc2c[nH]c3ccccc23)C(N)=O)NC(=O)[C@H](CCCNC(=N)N)NC(=O)[C@@H](Cc2ccccc2)NC(=O)[C@H](Cc2c[nH]cn2)NC1=O` [Example 9.3, Ac-Nle-cyclo(Glu-His-D-Phe-Arg-Dap)-Trp-NH2]: the EC50 in the series with MC1r was 0.57 nM; on MC2r it was above 10000 nM; at MC3r, above 10000 nM; at MC5r it was above 10000 nM; on MC4r [8], 510 nM. The “lipopolysaccharide-induced TNF-α inhibition” value with TNF-α was “comparable to α-MSH and ACTH”. Moreover, the “activity in 72 in vitro assays (Eurofins lead profile)” value with 72 in vitro assays is “no activity was detected”. Further, the inflammation score entry in series [5] (FIG. 1A) is on record as “as active as sulfasalazine”. Also, the colon weight result in [5] (FIG. 1B) is given as “as active as sulfasalazine”. In series [6], the “systemic peptide in plasma” value is on record as “did not detect any”. Besides, the “intact peptide in plasma or urine” value in series [2] was “no intact peptide”. In addition, the “peptide levels in fecal samples” value in series [2] is “significant and approximately equal levels”. Further, the figures for the “peptide release from microparticles” value in [7] (buffer pH 4.5-5.5) and in series [7] (buffer pH adjusted over time 4.5-7.5) were “no release” and “approximately total release”, respectively. Besides, the inhibition constant Ki on MC4r [3] came to 510 nM. Besides, the Emax on hMC1r [4] was 91%.
For “SYSMEHFRWGKPVGKKRRPVKVYPNGAEDESAEAFPLEF [ACTH, reference compound]”, in the series on MC1r, a half-maximal response (EC50) required 980 nM.
